From US20070027130A1, “Tricyclic 6-alkylidene-penem beta-lactamase inhibitors and beta-lactam antibiotic combination: a broad spectrum antibiotic” (priority 2005, published 2007)
≈ marks a conversion by molar mass, not a printed value.

How the values were obtained:
Assay in all cases: MIC microbroth dilution
Assay type in all cases: cell-based
[1] = system: A. baumannii GC 7692 TEM-1, AmpC; conditions: Acinetobacter baumannii, 18 h, read-out: Minimal Inhibitory Concentration
Outline: (§1)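 Antibiotics were serially diluted in Mueller-Hinton II broth following the NCCLS microdilution standard, inoculated, then held at 35 C in ambient air for 18-22 hours.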

[2] = system: E. aerogenes GC 7036 TEM-24, Amp C inducable; conditions: Klebsiella aerogenes, β-lactamase class A (ESBL), MHBII, 35° C. 18 hr, read-out: Minimal Inhibitory Concentration
Outline: as §1

E. coli GC 1684 (TEM-10) = conditions: Escherichia coli, β-lactamase class A (ESBL), MHBII, 35° C. 18 hr, read-out: Minimal Inhibitory Concentration
Outline: as §1

E. coli GC 1807 OXA-7 = conditions: Escherichia coli, GC1807OXA7, β-lactamase class D, MHBII, 35° C. 18 hr, read-out: Minimal Inhibitory Concentration
Outline: as §1

E. coli GC 2300 (TEM-28) = conditions: Escherichia coli, β-lactamase class A (ESBL), MHBII, 35° C. 18 hr, read-out: Minimal Inhibitory Concentration
Outline: as §1

E. coli GC 2400 (TEM-43) = conditions: Escherichia coli, β-lactamase class A (ESBL), MHBII, 35° C. 18 hr, read-out: Minimal Inhibitory Concentration
Outline: as §1

E. coli GC 2805 (CcrA) = conditions: Escherichia coli, 18 h, read-out: Minimal Inhibitory Concentration
Outline: as §1

E. coli GC 2844 (none) = conditions: Escherichia coli, β-lactamase class none, MHBII, 35° C. 18 hr, read-out: Minimal Inhibitory Concentration
Outline: as §1

E. coli GC 2847 (TEM-1) = conditions: Escherichia coli, β-lactamase class A, MHBII, 35° C. 18 hr, read-out: Minimal Inhibitory Concentration
Outline: as §1

E. coli GC 2920 (IRT-2) = conditions: Escherichia coli, β-lactamase class A (IRT), MHBII, 35° C. 18 hr, read-out: Minimal Inhibitory Concentration
Outline: as §1

[3] = system: E. coli GC 4971 OXA-1, TEM-1; conditions: Escherichia coli, β-lactamase class A, D, MHBII, 35° C. 18 hr, read-out: Minimal Inhibitory Concentration
Outline: as §1

[4] = system: E. coli GC 5901 (TEM-1 and SHV-8); conditions: Escherichia coli, β-lactamase class A, A (ESBL), MHBII, 35° C. 18 hr, read-out: Minimal Inhibitory Concentration
Outline: as §1

[5] = system: E. coli GC 6260 (TEM-1 + SHV-5); conditions: Escherichia coli, β-lactamase class A, A (ESBL), MHBII, 35° C. 18 hr, read-out: Minimal Inhibitory Concentration
Outline: as §1

E. coli GC 6368 (SHV-7) = conditions: Escherichia coli, β-lactamase class A (ESBL), MHBII, 35° C. 18 hr, read-out: Minimal Inhibitory Concentration
Outline: as §1

K. pn GC 1510 (TEM-10) = conditions: Klebsiella pneumoniae, β-lactamase class A (ESBL), MHBII, 35° C. 18 hr, read-out: Minimal Inhibitory Concentration
Outline: as §1

K. pn GC 6639 (SHV-13) = conditions: Klebsiella pneumoniae, β-lactamase class A (ESBL), MHBII, 35° C. 18 hr, read-out: Minimal Inhibitory Concentration
Outline: as §1

[6] = system: K. pn GC 6651 (TEM-1 + SHV-1 + SHV-5); conditions: Klebsiella pneumoniae, β-lactamase class A, A (ESBL), MHBII, 35° C. 18 hr, read-out: Minimal Inhibitory Concentration
Outline: as §1

[7] = system: K. pneumoniae GC 7820 Act 1; conditions: Klebsiella pneumoniae, GC7820ACT1, β-lactamase class C, MHBII, 35° C. 18 hr, read-out: Minimal Inhibitory Concentration
Outline: as §1

[8] = system: K. pneumoniae GC 7824 Fox 5; conditions: Klebsiella pneumoniae, GC7824FOX5, β-lactamase class C, MHBII, 35° C. 18 hr, read-out: Minimal Inhibitory Concentration
Outline: as §1

[9] = system: M. morganii GC 1617 TEM-10 + inducible AmpC; conditions: Morganella morganii, β-lactamase class A (ESBL), C, MHBII, 35° C. 18 hr, read-out: Minimal Inhibitory Concentration
Outline: as §1

[10] = system: P. aeruginosa GC 1764 (AmpC); conditions: Pseudomonas aeruginosa, β-lactamase class C, MHBII, 35° C. 18 hr, read-out: Minimal Inhibitory Concentration
Outline: as §1

[11] = system: S. maltophilia GC 1712(L1); conditions: Stenotrophomonas maltophilia, β-lactamase class B, MHBII, 35° C. 18 hr, read-out: Minimal Inhibitory Concentration
Outline: as §1

[12] = system: S. marcescens GC 4145 Inducible AmpC; conditions: Serratia marcescens, β-lactamase class C, MHBII, 35° C. 18 hr, read-out: Minimal Inhibitory Concentration
Outline: as §1

[13] = system: S. marcescens PT 696 Inducible AmpC; conditions: Serratia marcescens, β-lactamase class C, MHBII, 35° C. 18 hr, read-out: Minimal Inhibitory Concentration
Outline: as §1

[14] = system: S. typhimurium GC 4197 CTX-M-5; conditions: Salmonella enterica, β-lactamase class A (ESBL), MHBII, 35° C. 18 hr, read-out: Minimal Inhibitory Concentration
Outline: as §1

[15] = system: S. typhimurium GC 4198 SHV-1 CTX-M-5; conditions: Salmonella enterica, 18 h, read-out: Minimal Inhibitory Concentration
Outline: as §1

CO/N=C(\C(=O)N[C@@H]1C(=O)N2C(C(=O)[O-])=C(C[N+]3(C)CCCC3)CS[C@H]12)c1csc(N)n1 [Cefepime]
MIC [1]: > 16 µg/mL | MIC [2]: 2 µg/mL (≈ 4.16 µM) | MIC (E. coli GC 1684 (TEM-10)): > 16 µg/mL | MIC (E. coli GC 1807 OXA-7): 0.12 µg/mL (≈ 0.25 µM) | MIC (E. coli GC 2300 (TEM-28)): > 16 µg/mL | MIC (E. coli GC 2400 (TEM-43)): > 16 µg/mL | MIC (E. coli GC 2805 (CcrA)): > 16 µg/mL | MIC (E. coli GC 2844 (none)): 0.06 µg/mL (≈ 0.125 µM) | MIC (E. coli GC 2847 (TEM-1)): 0.12 µg/mL (≈ 0.25 µM) | MIC (E. coli GC 2920 (IRT-2)): 0.06 µg/mL (≈ 0.125 µM) | MIC [3]: 2 µg/mL (≈ 4.16 µM) | MIC [4]: > 16 µg/mL | MIC [5]: > 16 µg/mL | MIC (E. coli GC 6368 (SHV-7)): 2 µg/mL (≈ 4.16 µM) | MIC (K. pn GC 1510 (TEM-10)): 0.5 µg/mL (≈ 1.04 µM) | MIC (K. pn GC 6639 (SHV-13)): 8 µg/mL (≈ 16.6 µM) | MIC [6]: 2 µg/mL (≈ 4.16 µM) | MIC [7]: 0.5 µg/mL (≈ 1.04 µM) | MIC [8]: 2 µg/mL (≈ 4.16 µM) | MIC [9]: 0.25 µg/mL (≈ 0.52 µM) | MIC [10]: 8 µg/mL (≈ 16.6 µM) | MIC [11]: > 16 µg/mL | MIC [12]: 1 µg/mL (≈ 2.08 µM) | MIC [13]: 0.5 µg/mL (≈ 1.04 µM) | MIC [14]: > 16 µg/mL | MIC [15]: > 16 µg/mL
